Assay: Comment Code material properties: vapor pressure, ClogP, probability of ingredient color instability, odor detection threshold, melamine formaldehyde PMC headspace response ratio and leakage, liquid dish neat product liquid-air partition coefficient
Type: physicochemical
Conditions: Table 1 materials; each letter of the code is one property class (vapor pressure, ClogP, color instability, odor detection threshold, PMC headspace ratio, PMC leakage, liquid dish liquid-air partition coefficient)

Compound	Comment Code
O=C1CCCC=CCCCCCCCCCC1 [Material 788]	DEFGJK
CC(CO)CCCc1ccccc1 (stereo not shown) [Material 1012]	DEFHJK
CC1=CC2C(CC1)C(C)=CCC2C(C)C (stereo not shown) [Material 725]	DEFHJKL
CCCCCC(=Cc1ccccc1)COC(C)=O [Material 722]	DEFHJ
C=C(C)C1CCC(C)C(O)C1 (stereo not shown) [Material 897]	BCEFHIJKL
CC(C)c1ccc2ncccc2c1 [Material 778]	CEFHJK
CC1=CC2C(CC1)C(C)=CCC2C(C)C (stereo not shown) [Material 717]	DEFHJKL
O=CC(=Cc1ccco1)c1ccccc1 [Material 833]	CHJ
COc1cc(C=O)ccc1OC(=O)C(C)C [Material 1111]	CHJ
C=CCCCCCCCCCO [Material 870]	DEFHJK
CC(C)(C)c1ccc(CCC=O)cc1 [Material 601]	BDHJK
CCCC(O)CCC1C(C)CCCC1(C)C (stereo not shown) [Material 1063]	DEFHJK
CC(C)(O)Cc1ccccc1 [Material 649]	BCEFGIK
CCC(C)C(=O)OCCc1ccccc1 (stereo not shown) [Material 954]	DEFHJK
CC1=CC(C)C2(CCCC(C)(C)C2=O)CC1 (stereo not shown) [Material 1022]	DHIJK
CC1C(C)(C)C2CCC3CC(C)(C)OC3C2C1(C)C (stereo not shown) [Material 680]	ADEFHJK
CCCCCCCCC=CC=O [Material 828]	ADHJK
CC1=CC2CC(C3OCCO3)C1CC2C(C)C (stereo not shown) [Material 912]	DEFHJK
CCC=CCCOC(=O)CC(C)C [Material 814]	ADEFHJKL
CC1=CCC(/C=C/C(C)(C)C(C)O)C1(C)C (stereo not shown) [Material 985]	DHJK
CC(C)=CCCC1=CCC(C#N)CC1 (stereo not shown) [Material 660]	DEFHJK
C=CCCCCCCCC=O [Material 770]	ADHKL
CCCCCC1C(=O)CCC1C (stereo not shown) [Material 1053]	BDFHIJKL
CC(C)(O)CCc1ccccc1 [Material 639]	CEFGJK
CC(C)c1cccc(C(C)CC=O)c1 (stereo not shown) [Material 914]	BDHJK

Compound	Comment Code
CC/C(=C/CC1CC=C(C)C1(C)C)CO (stereo not shown) [Material 1024]	DEFHJK
COc1cc(OC)c(C=O)c(OC)c1 [Material 736]	BCGI
O=C(Cc1ccccc1)OCc1ccccc1 [Material 922]	DHJ
COc1ccc(CCC(C)=O)cc1 [Material 803]	BCEFHJK
CC(=O)OC(C)CC/C=C(\C)CCC=C(C)C (stereo not shown) [Material 890]	DEFHJK
CCCCCCCCC=CC#N [Material 827]	BDEFHJK
CCCC(=O)OCCc1ccccc1 [Material 831]	DEFHJK
O=C1CCCCCC=CCCCCCCCCO1 [Material 771]	DGJ
C=C(C)C1CC=C(COC(C)=O)CC1 (stereo not shown) [Material 947]	DFHJK
CC1=CCC(O)(C(C)C)CC1 (stereo not shown) [Material 800]	BCHIJK
CC(C)Cc1ccc(CC(C)C=O)cc1 (stereo not shown) [Material 1033]	DHJK
CCCCCC1CC(=O)C=C(C)C1C(=O)OCC (stereo not shown) [Material 591]	DHJ
CCCCCCCCCC=O [Material 584]	ADHKL
CCC(=O)OC1CC2CC1C1CC=CC21 (stereo not shown) [Material 919]	CEFHJK
CCCCCCCC1CCCO1 (stereo not shown) [Material 852]	BDEFHJKL
CC1CCC2(O1)C(C)(C)CCCC2(C)O (stereo not shown) [Material 893]	DFHIJK
CC(C)=CCC=C(C)C1CC=C(C)CC1 (stereo not shown) [Material 719]	DEFHJK
C=C(C)C1CC=C(C)C(OC(C)=O)C1 (stereo not shown) [Material 577]	BDHIJK
CC1CCC2C(C)(C)C3CC12CCC3(C)OC=O (stereo not shown) [Material 566]	BDEFHJK
O=C(OCc1ccccc1)c1ccccc1 [Material 653]	DHJ
C=C/C(C)=C/CC=C(C)C [Material 1077]	ADGIKL
C=CC(C)=CCC=C(C)CCC=C(C)C=O [Material 691]	DHJK
O=C(/C=C/c1ccccc1)OCc1ccccc1 [Material 650]	DHJ
CCCCC(CC)C1OCCO1 (stereo not shown) [Material 1043]	ACEFHIJKL

Same assay, conditions: cell strings several class symbols together; each letter is one property class of L1

Compound	Comment Code
CC(O)CCC1CCCCC1 (stereo not shown) [Material 699]	BDEFHIK
CCCC(=O)OC1CC2CC1C1CC=CC21 (stereo not shown) [Material 484]	DEFHJK
O=C1CCCC=CCCCCCCCCCC1 [Material 788]	DEFGJK
CC1(C)C2CCC3(C2)C1C1(CCC3(C)C)OCCO1 (stereo not shown) [Material 1144]	DEFHJK
C=C[C@](C)(O)CCC=C(C)C [Material 888]	BCEFGIJK
CC=Cc1ccc(OC(C)=O)c(OC)c1 [Material 213]	CFHJK
CCC(=O)OCCc1ccccc1 [Material 835]	BCEFHJK
Cc1cc(O)cc(C)c1Cl [Material 557]	BCHIJK
C=C1C2CCC(C)(C)C1CCC(OC)C2 (stereo not shown) [Material 7]	BDEFHJK
CC1(CO)CC1CC1CC2CC2(C)C1(C)C (stereo not shown) [Material 185]	DEFHJK
CC(C)CC=C(C=O)C(C)C [Material 847]	ADFGIJKL
COC(=O)C=C1CCCC1 [Material 116]	ACEFHIKL
C=C(OC(C)=O)c1ccccc1 [Material 931]	ACEFHIK
N#C/C=C/c1ccccc1 [Material 556]	ACEFGIK
CCCCCCCO [Material 282]	ACEFGIKL
CC(C)=CCCC(C)CC=O (stereo not shown) [Material 889]	ACHIJKL
CC1=CC(C)C2(CCCC(C)(C)C2=O)CC1 (stereo not shown) [Material 1022]	DHIJK
CCC(C)C(=O)N(C)c1ccccc1 (stereo not shown) [Material 314]	BCEFHJK
CC(=O)[C@@]1(C)CC2=C(CCCC2(C)C)C[C@@H]1C [Material 215]	DHJK
CC(C)(C)c1ccc(CC=O)cc1 [Material 994]	BDHJK
COC(C)(C)CCO [Material 812]	ACGIKL

Compound	Comment Code
CC(C=O)=Cc1ccccc1 [Material 701]	ACHIK
CCC/C=C\CCOC(C)=O [Material 882]	ACEFHKL
CC=Cc1ccc(OCc2ccccc2)c(OC)c1 [Material 212]	DFHJ
CCCCCCCC(=O)OCC [Material 387]	BDEFHJKL
CCCCCCOC(=O)CCC [Material 270]	BDEFHJKL
C=C(C)C1CCC(C)C(=O)C1 (stereo not shown) [Material 443]	ACGIJKL
CC1C(C)(C)C2CCC3CC(C)(C)OC3C2C1(C)C (stereo not shown) [Material 680]	ADEFHJK
CCC=CCCO [Material 817]	ACEFHIKL
CCCOC(=O)[C@H](C)OC(C)(C)CC [Material 1030]	BDEFHJK
CCCCCCCC1(C)OCC(C)O1 (stereo not shown) [Material 838]	BDEFHJK
CC(C)=CCCC(C)CC#N (stereo not shown) [Material 509]	BCEFGIKL
O=C/C=C/c1ccccc1 [Material 554]	ACHIK
CC1=CCC2CC1C2(C)C (stereo not shown) [Material 1001]	ADEFGIJKL
CC1=CC(=O)C2CC1C2(C)C (stereo not shown) [Material 883]	ACEFGIJKL
CCC(C)C(=O)OC(C)C (stereo not shown) [Material 198]	ACEFGIJKL
CCC(C)CC(CC)CCCC(C)O (stereo not shown) [Material 779]	BDEFGIJKL
CC(C)C(=O)OC1CC2CCC1(C)C2(C)C (stereo not shown) [Material 229]	BDEFHIJK
CC/C(CC(C)CC)=N/O (stereo not shown) [Material 1040]	BCEFGIJKL
CC/C(=C/CC1CC=C(C)C1(C)C)CO (stereo not shown) [Material 1024]	DEFHJK
COC1CC2CC1C1CC(C=O)CC21 (stereo not shown) [Material 1027]	CHJK
CC(C)C12CCC(C)(O)C1C2 (stereo not shown) [Material 1019]	ADEFGIJKL

Compound	Comment Code
CC1C(C)(C)C2=C(C3OC(C)(C)OC3CC2)C1(C)C (stereo not shown) [Material 23]	DEFHJK
COC(=O)C1(C)CCC(C)CC1 (stereo not shown) [Material 477]	ADEFHIJKL
CCOC(=O)C(C)C1CCCCC1 (stereo not shown) [Material 412]	BDFHIJKL
CCCCCCC=O [Material 284]	ACHIKL
CCC/C=C/CO [Material 1069]	ACEFHIKL
C=CC(C)=CCC1OC1(C)C (stereo not shown) [Material 73]	ADGIJKL
CC(=O)CCC1C(C)=CCCC1(C)C (stereo not shown) [Material 448]	BDHIJK
CCC(C)C(=O)OC (stereo not shown) [Material 904]	ACEFGIKL
CC(C)=CCCC(C)CCOC(=O)c1ccccc1 (stereo not shown) [Material 515]	DFHJ
C=C[C@@](C)(O)CCC=C(C)C [Material 1017]	BCEFGIJK
CCCC=CCO [Material 851]	ACEFHIKL
CC(=O)OC1CC2CC1C1CC=CC21 (stereo not shown) [Material 281]	CEFGJK
CC(C)=CCCC(C)CCO (stereo not shown) [Material 900]	BCHIJKL
CC1CCOC(c2ccccc2)C1 (stereo not shown) [Material 420]	BDEFHJK
CC1=CCC(C(C)C)=CC1 [Material 319]	ADEFGIJKL
O=C1CCc2ccccc2O1 [Material 442]	BCGIKL
CCC(=O)OC1CC2CC1C1CC=CC21 (stereo not shown) [Material 919]	CEFHJK
CC1CCC(=O)C1=O (stereo not shown) [Material 810]	ACEFGIKL
C/C=C\C(=O)/C(C)=C(/C)C(C)C [Material 986]	ADHIJKL
CC1CCC2C(C)(C)C3CC12CCC3(C)OC=O (stereo not shown) [Material 566]	BDEFHJK
Cc1ccc(C(C)C)cc1O [Material 575]	DHIJK

Same assay, conditions: letter codes A-L: vapor pressure, ClogP, probability of ingredient color instability, odor detection threshold, PMC headspace response ratio, PMC leakage, liquid dish liquid-air partition coefficient; Table 1 materials with at least one MORV from 1 to 5

Compound	Comment Code
CC1(C)C2CCC3(C2)C1C1(CCC3(C)C)OCCO1 (stereo not shown) [Material 1144]	DEFHJK
COc1cc(CCC(C)=O)ccc1O [Material 1146]	CEFGJ
CC1CC(C)(c2ccccc2)OC(C)O1 (stereo not shown) [Material 1126]	BCFHJK
CC1(C)C2CCC3(C2)C1C1(CCC3(C)C)OCCO1 (stereo not shown) [Material 1145]	DEFHJK
COC1C=CC2C3CCC(C3)C12 (stereo not shown) [Material 1120]	ACEFHJKL
CC1=CC2=C(C(C)C)CC[C@@H](C)[C@H]2CC1 [Material 1147]	DEFHJKL
